Legend:
[1] = reported value for comparison; cited from earlier work
[2] = apparent octanol-water partition coefficient (APC) of MNTX salts by HPLC; format: physicochemical; details: 1-octanol/water, aqueous phase pH between 4.5 and 6.8; for Log P: room temperature; for APC: shaken overnight at room temperature
Source text: The term “apparent partition coefficient,” as used herein, refers to the ratio of concentrations of a compound in any form in the two phases of a mixture of two immiscible solvents at equilibrium. In certain embodiments, the two immiscible solvents are octanol and water. The apparent partition coefficient may be determined under various conditions, for example, temperature, pH, concentration, etc. Apparent partition coefficients have been found useful in estimating the distribution of compounds in the body. Higher apparent partition coefficients denote a more hydrophobic (more lipophilic) compound, while lower apparent partition coefficients denote a hydrophilic compound. The apparent partition coefficient of a compound may be determined by procedures known in the art, for example, in the U.S. Pharmacopeia. The apparent partition coefficient may be determined by the procedure used to determine the apparent partition coefficients of methylnaltrexone dodecyl sulfate and methylnaltrexone heptyl sulfate in the Examples.
As a measure of lipophilicity of the resulting ion pair, a solution of the composition yields an apparent octanol/water partition coefficient for methylnaltrexone of at least 0.25 at a pH between 1 and 4. The apparent octanol/water partition coefficient as used herein is determined at room temperature at a concentration of approximately 0.5 mg/mL. Exemplary methods for the determination of apparent octanol/water partition coefficient of methylnaltrexone salts are described in the Examples below.
Ion pairs of methylnaltrexone with amphiphilic pharmaceutically acceptable excipients were prepared and the apparent octanol-water partition coefficient (APC) was measured and compared to that of methylnaltrexone bromide. A pre-determined amount of each of MNTX-heptyl sulfate and MNTX-dodecyl sulfate was dissolved in 2 mL of 1-octanol that was saturated with water. Two mL of water that was saturated with 1-octanol was added to each MNTX salt solution. The mixtures were shaken overnight at room temperature, and 1 mL of the 1-octanol phase was then diluted to 10 mL with the mobile phase used for chromatographic (HPLC) analysis of the samples. And 1 mL of the aqueous phase was diluted to 5 mL with the mobile phase. The samples were then analyzed by HPLC to determine the apparent partition coefficient and log P for each MNTX salt. The pH of the aqueous phases for each of the salts was between 4.5 and 6.8.

[3] = intravenous 0.01-0.37 mg/kg, methadone maintenance patients; cited from earlier work
[4] = system: constipation in methadone maintenance patients; details: intravenous 0.01-0.37 mg/kg; cited from earlier work
[5] = oral, in general; cited from earlier work

Question: For C[N@+]1(CC2CC2)CC[C@]23c4c5ccc(O)c4O[C@H]2C(=O)CC[C@@]3(O)[C@H]1C5.[Br-] [MNTX, (R)—N-(cyclopropylmethyl) noroxymorphone methobromide], which “reported Log P” value [1] is on record?
Answer: −1.605

Question: And the reported partition coefficient [1]?
Answer: 0.025

Question: Which “Log P” value [2] does the source give for CCCCCCCOS(=O)(=O)[O-].C[N+]1(CC2CC2)CCC23c4c5ccc(O)c4OC2C(=O)CCC3(O)C1C5 (stereo not shown) [MNTX-heptyl sulfate, methylnaltrexone heptyl sulfate] here?
Answer: 0.292

Question: What about the APC [2] of the same molecule?
Answer: 1.961

Question: With C[N+]1(CC2CC2)CC[C@]23c4c5ccc(O)c4O[C@H]2C(=O)CC[C@@]3(O)[C@H]1C5 (stereo partly drawn) [methylnaltrexone, (R)—N-methylnaltrexone] as the molecule, how does the “average peak plasma levels” value [3] read?
Answer: 162 ng/mL

Question: What about the “peak plasma levels, range” value [3] of the same molecule?
Answer: 30 to 774 ng/mL

Question: What about the laxation [4] of the same molecule?
Answer: induced “immediate” laxation

Question: What about the “methylnaltrexone absorbed into the bloodstream when delivered orally” value [5] of the same molecule?
Answer: less than 5%

Question: Which results are given for “methylnaltrexone dodecyl sulfate [MNTX-dodecyl sulfate]”?
Answer: Log P [2]: 1.505; APC [2]: 32.014

Reference: patent US10507206B2, “Oral formulations and lipophilic salts of methylnaltrexone” (Wyeth, LLC, priority 2010, dated 2019)
